One data set can be described thus: physchem. The note with it: organic solvent or mixture, thermodynamic from solid. The format is physicochemical. The text has this: The compounds which are embodiments of the present invention and used in this example were 2mFDBtPDBq (sample 1) and 2mDBTBPDBq-VIII (sample 2). For the methods for synthesizing the compounds, Synthesis Examples 1 and 2 can be referred to. As comparative compounds, 2-[3′-(dibenzothiophen-4-yl)biphenyl-3-yl]dibenzo[f,h]quinoxaline (abbreviation: 2mDBTBPDBq-II) (comparative sample 3) and 2-[3-(dibenzothiophen-4-yl)phenyl]dibenzo[f,h]quinoxaline (abbreviation: 2mDBTPDBq-II) (comparative sample 4) were used in this example. The purity of each compound was 99.9%. The chemical formulae of the compounds are shown below.
The solvents used in this example were the four kinds of solvents: toluene, chloroform, ethyl acetate, and acetone.
A method for examining the solubility of the compound of each sample is described. First, 10 mg of the compound was put into a small bottle and to this was added 1 mL of a solvent. Then, whether the compound was dissolved at room temperature or not was checked. When the compound was not dissolved at room temperature, ultrasonic wave irradiation and then heating using a dryer were performed, so that whether the compound was dissolved or not was checked.
When the compound was not dissolved after heating, the volume of the solvent was increased to 10 mL, so that whether the compound was dissolved at room temperature or not was checked. […]

A short description of data set [1]: Thermogravimetry-differential thermal analysis (TG-DTA), 5% weight loss temperature. The data set is classed as physicochemical. Conditions: nitrogen stream 200 mL/min, normal pressure, temperature rising rate 10° C./min. How it is done:
Thermogravimetry-differential thermal analysis (TG-DTA) was performed on 2mFDBtPDBq. The measurement was conducted by using a high vacuum differential type differential thermal balance (TG/DTA 2410SA, manufactured by Bruker AXS K.K.). The measurement was conducted under a nitrogen stream (flow rate: 200 mL/min) at normal pressure at a temperature rising rate of 10° C./min. It was found from the relationship between weight and temperature (thermogravimetry) that the 5% weight loss temperature of 2mFDBtPDBq was 495° C.
TG-DTA was performed on 2mDBtBPDBq-VIII. The conditions of the measurement were similar to those in Example 1. It was found from thermogravimetry that the 5% weight loss temperature of 2mDBtBPDBq-VIII was 500° C. or higher.

As usually defined, the solubility is the concentration that dissolves in the medium under given conditions. Consider `CC1(C)c2ccccc2-c2ccc(-c3cccc4c3sc3c(-c5cccc(-c6cnc7c8ccccc8c8ccccc8c7n6)c5)cccc34)cc21` [2mFDBtPDBq, 2-{3-[6-(9,9-dimethylfluoren-2-yl)dibenzothiophen-4-yl]phenyl}dibenzo[f,h]quinoxaline], for which the solubility in the data set “physchem” is greater than 10000 µg/mL. Moreover, the “5% weight loss temperature” value in data set [1] stood at 495 °C.

In the case of `CC1(C)c2ccccc2-c2ccc(-c3cccc4c3sc3c(-c5cccc(-c6cccc(-c7cnc8c9ccccc9c9ccccc9c8n7)c6)c5)cccc34)cc21` [2mDBtBPDBq-VIII, 2-(3-{3-[6-(9,9-dimethylfluoren-2-yl)dibenzothiophen-4-yl]phenyl}phenyl)dibenzo[f,h]quinoxaline], in “physchem”, the solubility was greater than 10000 µg/mL. Also, in data set [1], the “5% weight loss temperature” value was no less than 500 °C.

(Values after patent US9837621B2, “Compound, light-emitting element, light-emitting device, electronic device, and lighting device” (Semiconductor Energy Laboratory Co., Ltd., priority 2014, dated 2017).)
